Measurements taken from US5140044A, “UCN-1028D derivatives” (Kyowa Hakko Kogyo Co., Ltd., priority 1989, dated 1992).
In brackets after ≈: the same amount, converted by molar mass.

Experiments:
Protein Kinase C = assay: Protein kinase C inhibitory activity (method of Kikkawa et al.; crude enzyme from rat brain, Histone Type II S phosphorylation); format: biochemical; conditions: crude enzyme partially purified from rat brain; [γ-32P]ATP, 30° C., 3 minutes, pH 7.5
Method: Protein kinase C inhibitory activity
The protein kinase C inhibitory activity was measured by the method of Kikkawa, et al. [Journal of Biological Chemistry, 257, 13341 (1982)].
That is, 10 μl of a test solution containing a UCN-1028D derivative was added to 250 μl of a solution containing 2.5 μmoles of magnesium acetate, 50 μg of Histone Type II S (manufactured by Sigma Co., Ltd.), 20 μg of phosphatidyl serine, 0.8 μg of diolein, 25 nmoles of CaCl2, 5 μg of crude enzyme (partially purified from rat brain according to the method of Kikkawa, et al.) and 5 μmoles of Tris-hydrochloride buffer (pH 7.5), followed by incubation at 30° C. for 3 minutes. Then, phosphorylation was initiated by addition of 1.25 nmoles of [γ-^32 P]ATP (5 to 10×10^3 cpm/nmole), followed by incubation at 30° C. for 3 minutes The reaction was stopped by adding 25% trichloroacetic acid (TCA), and the reaction solution was filtered through a cellulose acetate membrane (pore size: 0.45 μm) (manufactured by Toyo Filter Paper Co., Ltd.). After the membrane was washed four times with 5% TCA, radioactivity remaining on the membrane was measured. As a control, the same procedure as above was repeated without addition of the test solution and radioactivity was likewise measured. The concentration of the test solution showing 50% inhibition as compared with the control was expressed as IC50.

BALB 3T3/H-ras = assay: Anti-tumor activity: growth inhibition of BALB 3T3 cells transformed with H-ras (Giemsa staining); format: cell-based; conditions: Mus musculus, BALB/3T3, 72 h, read-out: IC50 BALB 3T3/H-ras Inhibitory Activity
Method: The anti-tumor activity was determined using BALB 3T3 cells transformed with the carcinogenic gene H-ras (hereafter referred to as BALB 3T3/H-ras).
BALB 3T3/H-ras cells were suspended in a medium comprising DME medium (manufactured by Nissui Pharmaceutical Co., Ltd.) and 10% fetal calf serum (hereafter referred to as medium A) to a concentration of 3.0×10^4 /cells ml. The cell suspension thus prepared was put into wells of a 96-well microtiter plate in an amount of 0.1 ml per well. After culturing at 37° C. for 20 hours in a CO2 -incubator, 0.1 ml each of a test solution appropriately diluted with medium A was added to each well. The cells were further cultured at 37° C. for 72 hours in the CO2 -incubator and the culture supernatant was removed. After being washed once with physiological saline, the residue was treated with 0.1 ml of methanol for 10 minutes to fix the cells. Thereafter, the cells were stained with 0.1 ml of Giemsa staining solution [Giemsa staining stock solution (Merck Art 9204; manufactured by Merck Inc.) : physiological saline=1 : 10] for 5 minutes. After the staining solution was removed, the residue was washed once with 0.2 ml of water. The pigment was extracted with 0.2 ml of 0.1 N hydrochloric acid and the absorbance at 620 nm was measured with a microplate reader. By comparing the absorbance of untreated cells with those of the cells treated with the test compound at known concentrations, the concentration of the test compound at which the growth of the cells is inhibited by 50% (IC50) was calculated.

SMILES	IC50 Protein Kinase C Inhibitory Activity (Protein Kinase C) [µg/mL]	IC50 (BALB 3T3/H-ras) [µg/mL]
COc1c(C[C@@H](C)OC(C)=O)c2c3c(C[C@@H](C)OC(C)=O)c(OC)c(=O)c4c(O)cc(OC)c(c5c(OC)cc(O)c(c1=O)c52)c43 [Compound 1, 14,17-di-O-acetyl UCN-1028D]	1.6 (≈ 2.52 µM)	0.048 (≈ 0.0756 µM)
CCCC(=O)O[C@H](C)Cc1c(OC)c(=O)c2c(O)cc(OC)c3c4c(OC)cc(O)c5c(=O)c(OC)c(C[C@@H](C)OC(=O)CCC)c(c1c23)c54 [Compound 2, 14,17-di-O-butyryl UCN-1028D]	0.14 (≈ 0.203 µM)	0.023 (≈ 0.0333 µM)
CCCCCC(=O)O[C@H](C)Cc1c(OC)c(=O)c2c(O)cc(OC)c3c4c(OC)cc(O)c5c(=O)c(OC)c(C[C@@H](C)OC(=O)CCCCC)c(c1c23)c54 [Compound 3, 14,17-di-O-hexanoyl UCN-1028D]	0.035 (≈ 0.0469 µM)	0.12 (≈ 0.161 µM)
CCCCCCC(=O)O[C@H](C)Cc1c(OC)c(=O)c2c(O)cc(OC)c3c4c(OC)cc(O)c5c(=O)c(OC)c(C[C@@H](C)OC(=O)CCCCCC)c(c1c23)c54 [Compound 4, 14,17-di-O-heptanoyl UCN-1028D]	0.03 (≈ 0.0387 µM)	0.52 (≈ 0.671 µM)
CCCCCCCCCC(=O)O[C@H](C)Cc1c(OC)c(=O)c2c(O)cc(OC)c3c4c(OC)cc(O)c5c(=O)c(OC)c(C[C@@H](C)OC(=O)CCCCCCCCC)c(c1c23)c54 [Compound 5, 14,17-di-O-decanoyl UCN-1028D]	0.068 (≈ 0.0792 µM)	7 (≈ 8.15 µM)
CCCCCCCCCCCC(=O)O[C@H](C)Cc1c(OC)c(=O)c2c(O)cc(OC)c3c4c(OC)cc(O)c5c(=O)c(OC)c(C[C@@H](C)OC(=O)CCCCCCCCCCC)c(c1c23)c54 [Compound 6, 14,17-di-O-dodecanoyl UCN-1028D]	0.15 (≈ 0.164 µM)	4.8 (≈ 5.24 µM)
C=CCCC(=O)O[C@H](C)Cc1c(OC)c(=O)c2c(O)cc(OC)c3c4c(OC)cc(O)c5c(=O)c(OC)c(C[C@@H](C)OC(=O)CCC=C)c(c1c23)c54 [Compound 7, 14,17-di-O-pentenoyl UCN-1028D]	0.06 (≈ 0.0839 µM)	0.17 (≈ 0.238 µM)
COc1c(C[C@@H](C)OC(=O)C2CCCCC2)c2c3c(C[C@@H](C)OC(=O)C4CCCCC4)c(OC)c(=O)c4c(O)cc(OC)c(c5c(OC)cc(O)c(c1=O)c52)c43 [Compound 8, 14,17-di-O-cyclohexanecarbonyl UCN-1028D]	0.017 (≈ 0.0221 µM)	0.56 (≈ 0.726 µM)
COc1c(C[C@@H](C)OC(=O)Cc2ccccc2)c2c3c(C[C@@H](C)OC(=O)Cc4ccccc4)c(OC)c(=O)c4c(O)cc(OC)c(c5c(OC)cc(O)c(c1=O)c52)c43 [Compound 9, 14,17-bis-O-phenylacetyl UCN-1028D]	0.054 (≈ 0.0686 µM)	0.11 (≈ 0.14 µM)
COc1c(C[C@@H](C)OC(=O)CCc2ccccc2)c2c3c(C[C@@H](C)OC(=O)CCc4ccccc4)c(OC)c(=O)c4c(O)cc(OC)c(c5c(OC)cc(O)c(c1=O)c52)c43 [Compound 10, 14,17-bis-O-3-phenylpropionyl UCN-1028D]	0.045 (≈ 0.0552 µM)	0.95 (≈ 1.17 µM)
COc1c(C[C@@H](C)OC(=O)CCCc2ccccc2)c2c3c(C[C@@H](C)OC(=O)CCCc4ccccc4)c(OC)c(=O)c4c(O)cc(OC)c(c5c(OC)cc(O)c(c1=O)c52)c43 [Compound 11, 14,17-bis-O-4-phenylbutyryl UCN-1028D]	0.035 (≈ 0.0415 µM)	2.6 (≈ 3.08 µM)
COc1c(C[C@@H](C)OC(=O)Cc2cccc3ccccc23)c2c3c(C[C@@H](C)OC(=O)Cc4cccc5ccccc45)c(OC)c(=O)c4c(O)cc(OC)c(c5c(OC)cc(O)c(c1=O)c52)c43 [Compound 12, 14,17-bis-O-1-naphthylacetyl UCN-1028D]	0.05 (≈ 0.0564 µM)	1.3 (≈ 1.47 µM)
COc1c(C[C@@H](C)OC(=O)COc2ccccc2)c2c3c(C[C@@H](C)OC(=O)COc4ccccc4)c(OC)c(=O)c4c(O)cc(OC)c(c5c(OC)cc(O)c(c1=O)c52)c43 [Compound 13, 14,17-bis-O-phenyloxyacetyl UCN-1028D]	0.08 (≈ 0.0977 µM)	0.03 (≈ 0.0366 µM)
COc1c(C[C@@H](C)OC(=O)[C@@H](N)CC(C)C)c2c3c(C[C@@H](C)OC(=O)[C@@H](N)CC(C)C)c(OC)c(=O)c4c(O)cc(OC)c(c5c(OC)cc(O)c(c1=O)c52)c43 [Compound 14, 14,17-di-O-L-leucyl UCN-1028D bistrifluoroacetate]	0.21 (≈ 0.27 µM)	0.45 (≈ 0.579 µM)
CC[C@H](C)[C@H](N)C(=O)O[C@H](C)Cc1c(OC)c(=O)c2c(O)cc(OC)c3c4c(OC)cc(O)c5c(=O)c(OC)c(C[C@@H](C)OC(=O)[C@@H](N)[C@@H](C)CC)c(c1c23)c54 [Compound 15, 14,17-di-O-L-isoleucyl UCN-1028D bistrifluoroacetate]	0.15 (≈ 0.193 µM)	0.28 (≈ 0.36 µM)
COc1c(C[C@@H](C)OC(=O)[C@H](N)c2ccccc2)c2c3c(C[C@@H](C)OC(=O)[C@H](N)c4ccccc4)c(OC)c(=O)c4c(O)cc(OC)c(c5c(OC)cc(O)c(c1=O)c52)c43 [Compound 16, 14,17-di-O-D-phenylglycyl UCN-1028D bistrifluoroacetate]	0.17 (≈ 0.208 µM)	0.72 (≈ 0.881 µM)
COc1c(C[C@@H](C)OC(=O)[C@@H](N)Cc2ccccc2)c2c3c(C[C@@H](C)OC(=O)[C@@H](N)Cc4ccccc4)c(OC)c(=O)c4c(O)cc(OC)c(c5c(OC)cc(O)c(c1=O)c52)c43 [Compound 17, 14,17-di-O-L-phenylalanyl UCN-1028D bistrifluoroacetate]	0.088 (≈ 0.104 µM)	0.35 (≈ 0.414 µM)
COc1c(C[C@@H](C)OC(=O)[C@H](N)Cc2ccccc2)c2c3c(C[C@@H](C)OC(=O)[C@H](N)Cc4ccccc4)c(OC)c(=O)c4c(O)cc(OC)c(c5c(OC)cc(O)c(c1=O)c52)c43 [Compound 18, 14,17-di-O-D-phenylalanyl UCN-1028D bistrifluoroacetate]	0.16 (≈ 0.189 µM)	0.84 (≈ 0.994 µM)
CN[C@@H](Cc1ccccc1)C(=O)O[C@H](C)Cc1c(OC)c(=O)c2c(O)cc(OC)c3c4c(OC)cc(O)c5c(=O)c(OC)c(C[C@@H](C)OC(=O)[C@H](Cc6ccccc6)NC)c(c1c23)c54 [Compound 19, 14,17-bis-O-N-methyl-L-phenylalanyl UCN-1028D bistrifluoroacetate]	0.1 (≈ 0.115 µM)	0.35 (≈ 0.401 µM)
COc1c(C[C@@H](C)OC(=O)[C@@H]2CCCN2)c2c3c(C[C@@H](C)OC(=O)[C@@H]4CCCN4)c(OC)c(=O)c4c(O)cc(OC)c(c5c(OC)cc(O)c(c1=O)c52)c43 [Compound 20, 14,17-di-O-L-prolyl UCN-1028D bistrifluoroacetate]	0.33 (≈ 0.443 µM)	3.2 (≈ 4.3 µM)
COc1c(C[C@@H](C)OC(=O)CCCCCN)c2c3c(C[C@@H](C)OC(=O)CCCCCN)c(OC)c(=O)c4c(O)cc(OC)c(c5c(OC)cc(O)c(c1=O)c52)c43 [Compound 21, 14,17-bis-O-6-aminohexanoyl UCN-1028D bis-trifluoroacetate]	0.08 (≈ 0.103 µM)	2.5 (≈ 3.22 µM)
COc1c(C[C@@H](C)OC(=O)c2ccc(OC(C)=O)cc2)c2c3c(C[C@@H](C)OC(=O)c4ccc(OC(C)=O)cc4)c(OC)c(=O)c4c(O)cc(OC)c(c5c(OC)cc(O)c(c1=O)c52)c43 [Compound 24, 14,17-bis-O-p-acetoxybenzoyl UCN-1028D]	0.082 (≈ 0.0937 µM)	0.048 (≈ 0.0549 µM)
COc1c(C[C@@H](C)OC(=O)c2ccc(C#N)cc2)c2c3c(C[C@@H](C)OC(=O)c4ccc(C#N)cc4)c(OC)c(=O)c4c(O)cc(OC)c(c5c(OC)cc(O)c(c1=O)c52)c43 [Compound 25, 14,17-bis-O-p-cyanobenzoyl UCN-1028D]	0.05 (≈ 0.0618 µM)	0.042 (≈ 0.0519 µM)
COc1c(C[C@@H](C)OC(=O)c2ccc(O)cc2)c2c3c(C[C@@H](C)OC(=O)c4ccc(O)cc4)c(OC)c(=O)c4c(O)cc(OC)c(c5c(OC)cc(O)c(c1=O)c52)c43 [Compound 26, 14,17-bis-O-p-hydroxybenzoyl UCN-1028D]	0.084 (≈ 0.106 µM)	0.13 (≈ 0.164 µM)
